Source: patent US7592365B2, “Substituted pyrroles, compositions containing same, method for making same and use thereof” (Aventis Pharma S.A., priority 2005, dated 2009)

Key:
human FAK = target: T1, human FAK (Homo sapiens, UniProt Q05397); assay: FAK autophosphorylation inhibition, time-resolved fluorescence test (HTRF); assay type: biochemical; conditions: 15 μM ATP, 1 hour at 37° C.; read-out: FAK IC 50
T1 construct: The complete human FAK cDNA, whose N-terminal end was labelled with histidine, was cloned into a baculovirus expression vector pFastBac HTc; made in house
Procedure: The inhibitory activity of the compounds on FAK is determined by a measurement of the inhibition of the autophosphorylation of the enzyme using a time-resolved fluorescence test (HTRF).
The complete human FAK cDNA, whose N-terminal end was labelled with histidine, was cloned into a baculovirus expression vector pFastBac HTc. The protein was expressed and purified at about 70% homogeneity.
The kinase activity is determined by incubating the enzyme (6.6 μg/ml) with various concentrations of test compound in a 50 mM Hepes buffer, pH=7.2, containing 10 mM MgCl2, 100 μM Na3VO4, 15 μM ATP for 1 hour at 37° C. The enzymatic reaction is stopped by adding Hepes buffer, pH=7.0, containing 0.4 mM KF, 133 mM EDTA, 0.1% BSA and the labelling is carried out, for 1 to 2 hours at room temperature, by adding to this buffer an anti-histidine antibody labelled with XL665 and a monoclonal antibody phospho-specific for tyrosine, conjugated with europium cryptate (Eu-K). The characteristics of the two fluorophores are available in G. Mathis et al., Anticancer Research, 1997, 17, pages 3011-3014. The energy transfer between the excited europium cryptate to the acceptor XL665 is proportional to the degree of autophosphorylation of FAK. The signal of long duration specific for XL-665 is measured in a Packard Discovery plate counter. All the assays are performed in duplicate and the mean of the two assays is calculated. The inhibition of the FAK autophosphorylation activity with compounds of the invention is expressed as a percentage inhibition relative to a control whose activity is measured in the absence of test compound. For the calculation of the % inhibition, the [signal at 665 nm/signal at 620 nm] ratio is considered.

[1] = target: T2, human KDR enzyme (cytoplasmic domain, GST fusion) (Homo sapiens, UniProt P35968); assay: Phosphorylation of substrate by the KDR enzyme in vitro, scintillation technique; assay type: biochemical; conditions: 2 μM cold ATP, PLCγ SH2-SH3 substrate, 1 hour at 37° C.; read-out: KDR IC 50
T2 construct: The cytoplasmic domain of the human KDR enzyme was cloned in a GST fusion form; GST; made in house; host or cells: SF21 insect cells (baculovirus)
Procedure: The inhibitory effect of the compounds is determined in a test of phosphorylation of substrate by the KDR enzyme in vitro by a scintillation technique (96-well plate, NEN).
The cytoplasmic domain of the human KDR enzyme was cloned in a GST fusion form into the baculovirus expression vector pFastBac. The protein was expressed in SF21 cells and purified to about 60% homogeneity.
The kinase activity of KDR is measured in 20 mM MOPS, 10 mM MgCl2, 10 mM MnCl2, 1 mM DTT, 2.5 mM EGTA, 10 mM b-glycerophosphate, pH=7.2, in the presence of 10 mM MgCl2, 100 μM Na3VO4, 1 mM NaF. 10 μl of the compound are added to 70 μl of kinase buffer containing 100 ng of KDR enzyme at 4° C. The reaction is initiated by adding 20 μl of solution containing 2 μg of substrate (SH2—SH3 fragment of PLCγ expressed in the form of a GST fusion protein), 2 μCi γ ^33P[ATP] and 2 μM cold ATP. After incubating for 1 hour at 37° C., the reaction is stopped by adding 1 volume (100 μl) of 200 mM EDTA. The incubation buffer is removed and the wells are washed three times with 300 μl of PBS. The radioactivity is measured in each well using a Top Count NXT (Packard) radioactivity counter.
The background noise is determined by measuring the radioactivity in four different wells containing radioactive ATP and the substrate alone.
A control for total activity is measured in four different wells all containing the reagents (γ^33P-[ATP], KDR and PLCγ substrate) but in the absence of compound.
The inhibition of the KDR activity with the compound of the invention is expressed as percentage inhibition of the control activity determined in the absence of compound.
The compound SU5614 (Calbiochem) (1 μM) is included in each plate as control for inhibition.

[2] = target: T3, human Tie2 (intracellular domain 776-1124, GST fusion) (Homo sapiens, UniProt Q02763); assay: Phosphorylation of PLC by Tie2 (GST-Tie2), FlashPlate radioactivity test; assay type: biochemical; conditions: 2 μM cold ATP, GST-PLC substrate, 1 hour at 37° C.; read-out: TEI2 IC 50
T3 construct: the amino acids of the intracellular domain 776-1124; made in house
Procedure: The coding sequence for human Tie2 corresponding to the amino acids of the intracellular domain 776-1124 was generated by PCR using the cDNA isolated from human placenta as model. This sequence was introduced into a baculovirus expression vector pFastBacGT in the form of a GST fusion protein.
The inhibitory effect of the molecules is determined in a test of phosphorylation of PLC by Tie2 in the presence of GST-Tie2 purified to about 80% homogeneity. The substrate is composed of the SH2—SH3 fragments of PLC expressed in the form of the GST fusion protein.
The kinase activity of Tie2 is measured in a 20 mM MOPS buffer, pH 7.2, containing 10 mM MgCl2, 10 mM MnCl2, 1 mM DTT, 10 mM glycero-phosphate. A reaction mixture composed of 70 μl of kinase buffer containing 100 ng of GST-Tie2 enzyme per well is deposited in a FlashPlate 96-well plate kept on ice. 10 μl of the test molecule diluted in DMSO to a concentration of 10% maximum are then added. For a given concentration, each measurement is carried out in quadruplicate. The reaction is initiated by adding 20 μl of solution containing 2 μg of GST-PLC, 2 μM of cold ATP and 1 μCi of d′^33P[ATP]. After incubating for 1 hour at 37° C., the reaction is stopped by adding 1 volume (100 μl) of EDTA at 200 mM. After removing the incubation buffer, the wells are washed three times with 300 μl of PBS. The radioactivity is measured on a Wallac MicroBeta1450.
The inhibition of the Tie2 activity is calculated and expressed as a percentage inhibition relative to the control activity determined in the absence of compound.

T1 sequence (Q05397 whole entry): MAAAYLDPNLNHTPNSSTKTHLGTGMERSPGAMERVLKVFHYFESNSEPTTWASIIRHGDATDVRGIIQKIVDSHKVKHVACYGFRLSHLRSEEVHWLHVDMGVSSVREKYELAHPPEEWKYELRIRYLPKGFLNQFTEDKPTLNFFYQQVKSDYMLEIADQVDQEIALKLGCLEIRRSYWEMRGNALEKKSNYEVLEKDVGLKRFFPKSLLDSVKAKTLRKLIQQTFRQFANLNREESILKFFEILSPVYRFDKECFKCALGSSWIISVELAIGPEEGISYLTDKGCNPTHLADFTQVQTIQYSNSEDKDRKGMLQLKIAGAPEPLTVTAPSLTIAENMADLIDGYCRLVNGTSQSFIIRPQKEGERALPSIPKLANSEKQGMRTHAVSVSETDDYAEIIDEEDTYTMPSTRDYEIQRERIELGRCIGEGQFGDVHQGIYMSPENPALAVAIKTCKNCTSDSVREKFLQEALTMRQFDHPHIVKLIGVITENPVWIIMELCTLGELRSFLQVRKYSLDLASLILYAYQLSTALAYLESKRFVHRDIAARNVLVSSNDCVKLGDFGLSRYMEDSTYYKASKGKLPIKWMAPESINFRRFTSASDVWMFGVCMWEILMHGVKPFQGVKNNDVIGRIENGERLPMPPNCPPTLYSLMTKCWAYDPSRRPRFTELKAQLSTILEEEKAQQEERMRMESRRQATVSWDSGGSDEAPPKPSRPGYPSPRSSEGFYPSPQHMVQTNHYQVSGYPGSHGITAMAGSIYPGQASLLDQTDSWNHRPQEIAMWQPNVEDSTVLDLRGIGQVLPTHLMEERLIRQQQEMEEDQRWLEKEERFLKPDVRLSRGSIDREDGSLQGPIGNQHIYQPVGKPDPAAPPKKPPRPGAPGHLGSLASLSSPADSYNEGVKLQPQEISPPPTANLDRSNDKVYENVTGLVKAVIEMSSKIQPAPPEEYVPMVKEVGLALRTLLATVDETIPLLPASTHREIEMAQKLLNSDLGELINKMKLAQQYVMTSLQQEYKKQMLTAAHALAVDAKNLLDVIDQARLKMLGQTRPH
T3 sequence (Q02763 776-1124): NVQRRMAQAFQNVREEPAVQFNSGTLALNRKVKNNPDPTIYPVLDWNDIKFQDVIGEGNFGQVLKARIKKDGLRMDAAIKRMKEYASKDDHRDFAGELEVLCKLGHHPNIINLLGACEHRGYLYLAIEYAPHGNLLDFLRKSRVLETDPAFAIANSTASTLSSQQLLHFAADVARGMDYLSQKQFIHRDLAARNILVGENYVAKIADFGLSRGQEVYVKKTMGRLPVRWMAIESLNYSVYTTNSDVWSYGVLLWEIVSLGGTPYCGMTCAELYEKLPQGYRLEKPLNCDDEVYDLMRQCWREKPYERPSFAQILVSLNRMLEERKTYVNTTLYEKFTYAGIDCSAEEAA
T2 sequence (P35968 786-1356 limits assumed): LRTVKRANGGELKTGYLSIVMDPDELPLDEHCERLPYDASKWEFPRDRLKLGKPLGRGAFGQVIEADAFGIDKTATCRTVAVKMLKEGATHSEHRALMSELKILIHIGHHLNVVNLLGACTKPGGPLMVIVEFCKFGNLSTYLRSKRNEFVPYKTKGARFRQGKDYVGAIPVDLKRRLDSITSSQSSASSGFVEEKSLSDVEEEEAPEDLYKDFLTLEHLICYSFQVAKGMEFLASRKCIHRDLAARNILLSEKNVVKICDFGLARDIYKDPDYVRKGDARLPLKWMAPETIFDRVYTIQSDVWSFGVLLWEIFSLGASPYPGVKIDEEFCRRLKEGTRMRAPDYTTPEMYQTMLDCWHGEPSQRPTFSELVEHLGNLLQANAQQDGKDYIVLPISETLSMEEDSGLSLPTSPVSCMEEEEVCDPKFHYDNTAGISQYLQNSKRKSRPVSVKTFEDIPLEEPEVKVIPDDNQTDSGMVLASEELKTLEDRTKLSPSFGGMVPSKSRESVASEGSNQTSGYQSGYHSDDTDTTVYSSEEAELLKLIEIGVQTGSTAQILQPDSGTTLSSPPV

| IC50 (human FAK) | IC50 [1] | IC50 [2] | melting point | SMILES |
| --- | --- | --- | --- | --- |
| 717 nM | 13 nM | 125 nM |  | CC(=O)Nc1[nH]cc(-c2ccc(NC(=O)Nc3ccc(C)c(C)c3)cc2)c1C(N)=O [Example 19, 2-Acetylamino-4-{4-[3-(3,4-dimethylphenyl)ureido]phenyl}-1H-pyrrole-3-carboxamide] |
| 2060 nM | 6470 nM | 69 nM |  | NC(=O)c1c[nH]cc1-c1ccc(NC(=O)Nc2cc(C(F)(F)F)ccc2F)cc1 [Example 1, 4-{4-[3-(2-Fluoro-5-trifluoromethylphenyl)ureido]phenyl}-1H-pyrrole-3-carboxamide] |

Second part, the molecule before the results:

| SMILES | IC50 (human FAK) | IC50 [1] | IC50 [2] | melting point |
| --- | --- | --- | --- | --- |
| CC(=O)Nc1[nH]cc(-c2ccc(NC(=O)Nc3ccc(OC(F)(F)F)cc3)cc2)c1C(N)=O [Example 21, 2-Acetylamino-4-{4-[3-(4-trifluoromethoxyphenyl)ureido]phenyl}-1H-pyrrole-3-carboxamide] | 163 nM | 19 nM | 118 nM |  |
| CCCC(=O)Nc1[nH]cc(-c2ccc(NC(=O)Nc3cc(C(F)(F)F)ccc3F)cc2)c1C(N)=O [Example 5, 2-Butyrylamino-4-{4-[3-(2-fluoro-5-trifluoromethylphenyl)ureido]phenyl}-1H-pyrrole-3-carboxamide] | 266 nM | 42 nM | 11 nM |  |
| CC(=O)Nc1[nH]cc(-c2ccc(NC(=O)Nc3ccc(C)c(C(F)(F)F)c3)cc2)c1C(N)=O [Example 40, 2-Acetylamino-4-{4-[3-(4-methyl-3-trifluoromethylphenyl)ureido]phenyl}-1H-pyrrole-3-carboxamide] |  |  |  | 266 °C |
